Active and inactive are the calls of the source. The rule behind the calls is not given here.
These molecules were tested against Peptidyl-prolyl cis-trans isomerase FKBP1A (Homo sapiens) (UniProt P62942) (assay: small-molecule binding to FKBP12 – biophysical, NMR detection (AID 608)). Conditions: purified FKBP12.
Peptidyl-prolyl cis-trans isomerase FKBP1A (Homo sapiens), sequence (P62942 whole entry, looked up): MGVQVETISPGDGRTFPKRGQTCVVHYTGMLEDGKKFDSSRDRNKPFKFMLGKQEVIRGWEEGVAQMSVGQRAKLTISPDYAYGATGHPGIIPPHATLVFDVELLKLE

Compound	Kd
COc1ccc2c(c1OC)C(=O)O[C@H]2[C@H]1c2cc3c(cc2CCN1C)OCO3	> 4 mM (inactive)
Cn1c(=O)c2[nH]c(Nc3ccccc3)nc2n(C)c1=O	> 4 mM (inactive)
Cc1ccccc1NS(=O)(=O)c1ccc(F)cc1	> 4 mM (inactive)
CCNC(=S)Nc1c(C)n(C)n(-c2ccccc2)c1=O	> 4 mM (inactive)
O=c1c(-c2cc(O)c(O)c(O)c2)coc2cc(O)c(O)c(O)c12	> 4 mM (inactive)
Nc1nc2n(c1C(=O)c1ccccc1)CCC2	> 4 mM (inactive)
O=C(O)C1=Cc2ccccc2OC1	> 4 mM (inactive)
CC(CCC(=O)O)[C@H]1CCC2C3C[C@H](O)[C@@H]4C[C@H](O)CC[C@]4(C)C3CC[C@@]21C (stereo partly drawn)	> 4 mM (inactive)
Cc1nnc2sc(-c3csc4c3CCCC4)nn12	> 4 mM (inactive)
CC12CCCC(O)(C1)C1CC(C)(C)C1CC2 (stereo not drawn)	> 4 mM (inactive)
CC(=O)Oc1cc2c(c(C)c1OC(C)=O)CC=C1[C@@]2(C)CC[C@@]2(C)C3C[C@](C)(C(=O)O)CC[C@]3(C)CC[C@]12C (stereo partly drawn)	> 4 mM (inactive)
C[C@H](CCC(=O)O)[C@H]1CCC2C3C(CC[C@@]21C)[C@@]1(C)CC[C@@H](O)C[C@H]1C[C@H]3O (stereo partly drawn)	> 4 mM (inactive)
O=C1Nc2ccccc2C1C1(O)C(=O)Nc2ccc(F)cc21 (stereo not drawn)	> 4 mM (inactive)
Cc1nnc2sc(-c3ccco3)nn12	> 4 mM (inactive)
CC(CCC(=O)O)[C@H]1CCC2C3CC[C@@H]4C[C@H](O)CC[C@]4(C)C3CC[C@@]21C (stereo partly drawn)	> 4 mM (inactive)
CCCCCC/C=C\CCCCCCCc1cccc(O)c1C(=O)O	> 4 mM (inactive)
Cc1ccc(-n2cnnn2)c2cccnc12	> 4 mM (inactive)
Cc1csc2nc3ccccc3c(=O)n12	> 4 mM (inactive)
NCc1ccc(-c2cccs2)s1	> 4 mM (inactive)
O=C(NCc1ccccn1)c1ccc(Br)s1	> 4 mM (inactive)
CCOC(=O)Nc1ccc2c(C)cc(=O)oc2c1	> 4 mM (inactive)
Cc1ccc(CO)o1	> 4 mM (inactive)
CN1C(=O)C2CC=C(Cl)CC2C1=O (stereo not drawn)	> 4 mM (inactive)

Compound	Kd
COC(=O)C1=C(C)N(Cc2ccco2)C(=O)C1	> 4 mM (inactive)
O=C(NS(=O)(=O)c1ccccc1)c1ccccc1F	> 4 mM (inactive)
CN(C)C(=O)C12CCC(C)(C(=O)O1)C2(C)C (stereo not drawn)	> 4 mM (inactive)
NC(=O)CSc1nc2[nH]ncc2c(=O)[nH]1	> 4 mM (inactive)
CC(C)=CCCC1(C)C=Cc2c(O)c3c(c(CC=C(C)C)c2O1)OC12C(=CCCC1C(C)(C)O[C@@]2(C/C=C(\C)C(=O)O)C(=O)O)C3=O (stereo partly drawn)	> 4 mM (inactive)
CCN=Cc1c(O)n(-c2ccccc2C)c(=O)[nH]c1=O	> 4 mM (inactive)
CC1(C)Cc2cccc(CO)c2O1	> 4 mM (inactive)
NC(=O)CCN1C(=O)c2ccccc2C1=O	> 4 mM (inactive)
C=C[C@@](C)(O)CCC1C(=C)C[C@H](OC(C)=O)C2C(C)(C)CCCC12C (stereo partly drawn)	> 4 mM (inactive)
O=S1(=O)NC(=NCc2ccco2)c2ccccc21	> 4 mM (inactive)
CC(C)c1ccc2c(c1)CCC1[C@](C)(CN)CCC[C@]21C (stereo partly drawn)	> 4 mM (inactive)
COc1cc2c(c(OC)c1OC)-c1ccc(O)c(=O)cc1[C@@H](NC(C)=O)CC2	> 4 mM (inactive)
COC(=O)[C@]1(C)CCC[C@]2(C)c3ccc(C(C)C)cc3C(=O)CC12 (stereo partly drawn)	> 4 mM (inactive)
COC(=O)[C@H]1[C@H]2C[C@H]3c4[nH]c5ccccc5c4CCN3C[C@H]2CC[C@@H]1O	> 4 mM (inactive)
O=C(O)C1CCCCN1Cc1ccccc1 (stereo not drawn)	> 4 mM (inactive)
Nc1nnc(COc2cccc(C(F)(F)F)c2)s1	> 4 mM (inactive)
O=c1c2ccccc2nc2n1CCCCN2	> 4 mM (inactive)
CC(=O)Nc1c(Cl)cnn(-c2ccccc2)c1=O	> 4 mM (inactive)
CC1(C)NC(=O)N(CCOc2ccc3c(c2)CCC3)C1=O	> 4 mM (inactive)
CSc1nc(O)cc(=O)[nH]1	> 4 mM (inactive)
Cc1c(C)n2c(SCC(N)=O)nnc2[nH]c1=O	> 4 mM (inactive)
Cc1ccc(C2NS(=O)(=O)N=C2N)cc1 (stereo not drawn)	> 4 mM (inactive)
COc1cc2c(cc1O)CCNC2C (stereo not drawn)	> 4 mM (inactive)

Compound	Kd
COn1c(=O)c(C)[n+]([O-])c2ccccc21	> 4 mM (inactive)
Cc1cccc(-n2c(N)cc(=O)[nH]c2=S)c1C	> 4 mM (inactive)
COc1ccc(-c2nnc(-c3ccc(N)cc3)o2)cc1	> 4 mM (inactive)
Nc1ccc(N2CCCCC2)cc1	> 4 mM (inactive)
COC1=C(OC)C(=O)C(C/C=C(\C)CC/C=C(\C)CC/C=C(\C)CC/C=C(/C)CC/C=C(\C)CC/C=C(\C)CC/C=C(\C)CC/C=C(\C)CC/C=C(\C)CCC=C(C)C)=C(C)C1=O	> 4 mM (inactive)
NC(C(=O)O)C(O)C(=O)O (stereo not drawn)	> 4 mM (inactive)
COc1cc([C@@H]2c3cc4c(cc3[C@H](OC(C)=O)[C@H]3COC(=O)[C@@H]23)OCO4)cc(OC)c1OC	> 4 mM (inactive)
Cc1ccccc1CSc1nnc(C)n1N	> 4 mM (inactive)
NC(=O)CSc1nnc2ccc(-c3ccco3)nn12	> 4 mM (inactive)
O=C1CNc2cc(C(=O)O)ccc2N1	> 4 mM (inactive)
O=C(O)CCN1CCOCC1	> 4 mM (inactive)
CC(=O)NC(=S)Nc1ccc(N(C)C(C)=O)cc1	> 4 mM (inactive)
OCc1ccc(-n2cccn2)cc1	> 4 mM (inactive)
O=C(COc1ccccc1)N1CCOCC1	inactive
NCC1COc2ccccc2O1 (stereo not drawn)	> 4 mM (inactive)
COc1cc2c(cc1O)CC1c3c(cc(O)c(OC)c3-2)CCN1C (stereo not drawn)	> 4 mM (inactive)
Cc1ccsc1/C=c1\sc2ncnn2c1=O	> 4 mM (inactive)
COc1ccc(C[C@H]2NC[C@H](O)[C@H]2OC(C)=O)cc1	> 4 mM (inactive)
N#Cc1ccccc1Cn1c(-c2cscn2)nc2ccccc21	inactive
NCc1ccc(N2CCOCC2)cc1	> 4 mM (inactive)
c1ccc2[nH]c(NCCN3CCOCC3)nc2c1	> 4 mM (inactive)
CCc1nnc(NC(C)=O)s1	> 4 mM (inactive)
COc1cc2c(cc1OC)Cc1cc(OC)c(OC)cc1Cc1cc(OC)c(OC)cc1C2	> 4 mM (inactive)

Compound	Kd
COc1ccc2c(CC(=O)O)coc2c1	> 4 mM (inactive)
COC(=O)CCSCC(=O)Nc1nccs1	> 4 mM (inactive)
COc1cc(C(C)=O)ccc1OC(=O)N1CCOCC1	> 4 mM (inactive)
CC(=O)c1c(C)nc(-c2ccc(F)cc2)n1O	> 4 mM (inactive)
NC(=O)CSc1ccc(Br)cc1	> 4 mM (inactive)
COc1ccc2[nH]cc(CCN(C)C)c2c1	> 4 mM (inactive)
Nc1ccc(Oc2ccccc2)nc1	> 4 mM (inactive)
CSc1nc(=O)[nH]c2c1CCC2	> 4 mM (inactive)
COc1ccc2c(c1)OCc1c-2oc2cc(OC)ccc12	> 4 mM (inactive)
CC(=O)Nc1ccc(N2C(=O)C=CC2=O)cc1C	> 4 mM (inactive)
O=C(O)Cn1nnnc1-c1ccc(F)cc1	> 4 mM (inactive)
O=c1cc(-c2ccc(O)cc2)[nH]c(=S)[nH]1	> 4 mM (inactive)
Cc1nn(C)c(Cl)c1C(O)c1c(C)nn(C)c1Cl	> 4 mM (inactive)
O=C1NC(=Nc2ccccc2)S/C1=C/c1cccnc1	> 4 mM (inactive)
CS(=O)(=O)NC1CCN(Cc2ccccc2)CC1	> 4 mM (inactive)
CCOC(=O)C1CCN(Cc2ccccc2)CC1	> 4 mM (inactive)
O=C(O)CCn1c(=O)oc2ccccc21	> 4 mM (inactive)
Cc1ccc2c(C)c(C(=O)Nc3nnc(C)s3)oc2c1	> 4 mM (inactive)
Nc1c(S(=O)(=O)c2ccccc2)csc1C(=O)O	> 4 mM (inactive)
COC(=O)C[C@H]1C(C)(C)C(OC(C)=O)[C@]2(O)C=C3C(CC[C@]4(C)C3CC(=O)O[C@H]4c3ccoc3)C1(C)C2=O (stereo partly drawn)	> 4 mM (inactive)
O=C(O)CCCNC(=O)c1ccccc1C(=O)O	> 4 mM (inactive)
O=C(O)C1COc2ccccc2C1 (stereo not drawn)	> 4 mM (inactive)
O=C(O)CCC(=O)Nc1ccccn1	> 4 mM (inactive)

Compound	Kd
CCOC(=O)c1cnc2n(c1=O)CCS2	> 4 mM (inactive)
CC(=O)O[C@H]1C[C@@H](OC(C)=O)C(C)(C)C2C[C@@H](OC(C)=O)[C@]3(C)C(CC[C@@]4(C)[C@H](c5ccoc5)C(=O)[C@H]5O[C@]543)[C@]21C (stereo partly drawn)	> 4 mM (inactive)
c1ccc(Cc2nnc(-c3ccccc3)o2)cc1	> 4 mM (inactive)
O=C(Nc1nccs1)c1cccnc1	> 4 mM (inactive)
COC(=O)Cc1cccc(OC)c1	> 4 mM (inactive)
Nc1nsc(-c2ccccc2)n1	> 4 mM (inactive)
COc1ccc2ccc(=O)oc2c1	> 4 mM (inactive)
COC(=O)C[C@H]1C(C)(C)C(=O)[C@@H]2CC3=C4CC(=O)O[C@@H](c5ccoc5)[C@]4(C)CCC3C1(C)C2=O (stereo partly drawn)	> 4 mM (inactive)
CC(C)NC(=S)NCc1cnn(C)c1	> 4 mM (inactive)
O=C(CSC1=NCCS1)N1CCc2ccccc21	> 4 mM (inactive)
CN1CCC=C(C(=O)O)C1	> 4 mM (inactive)
Cc1n[nH]c(C)c1-c1ccccc1C(=O)O	> 4 mM (inactive)
Cc1nc2ccccc2n1S(=O)(=O)N1CCCCC1	inactive
COc1ncnc(N)c1[N+](=O)[O-]	> 4 mM (inactive)
CSc1ccccc1NC(=O)c1cnccn1	> 4 mM (inactive)
COc1ccc2c(c1)OCC(Cc1ccc(OC)c(OC(C)=O)c1)C2=O (stereo not drawn)	> 4 mM (inactive)
O=C(Nc1cccnc1)c1c(F)c(F)c(F)c(F)c1F	> 4 mM (inactive)
CSc1nc(NC(C)(C)C)nc(N2CCOCC2)n1	> 4 mM (inactive)
NC[C@H]1O[C@H](O[C@H]2[C@H](O)[C@@H](O[C@H]3O[C@H](CO)[C@@H](O)[C@H](N)[C@H]3O)[C@H](N)C[C@@H]2N)[C@H](N)[C@@H](O)[C@@H]1O	> 4 mM (inactive)
O=C(O)C1CC(=O)N(Cc2ccc(F)cc2)C1 (stereo not drawn)	> 4 mM (inactive)
Cc1c(N=Cc2ccc[nH]2)c(=O)n(-c2ccccc2)n1C	> 4 mM (inactive)

Source: PubChem BioAssay AID608 (Sanford-Burnham Center for Chemical Genomics, 2007)
